US12617779B2, “Self degradation-type CDK9 inhibitor prodrug and liposome encapsulating same” (Sumitomo Pharma Co., Ltd., priority 2021, dated 2026)
Where a name gives a salt, the structure may show the parent alone.

Experiment: Evaluation of conversion rate to active form in buffer solution (Experimental Example 1)
Type: physicochemical
Details: for Production rate of Alvocidib / Residual rate: 25 umol/L in buffer solution; for Stability in buffer solution at pH 5: pH 5, 37° C., up to 2 or 3 hours; for Conversion to Alvocidib at pH 7.4: pH 7.4, 37° C., up to 3 hours
Summary of the method: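 25 umol/L cpd, 37° C; 50 mM citrate pH 5.0/5.5, 50 mM phosphate pH 6.0/6.5/7.0/7.4. HPLC at 0–3 h: residual rate and Alvocidib production rate.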

## CCN(CC1CCCCN1)C(=O)Oc1cc(O)c2c(=O)cc(-c3ccccc3Cl)oc2c1[C@H]1CCN(C)C[C@H]1O (stereo partly drawn) [Example 7, 2-(2-chlorophenyl)-5-hydroxy-8-[(3S,4R)-3-hydroxy-1-methylpiperidin-4-yl]-4-oxo-4H-1-benzopyran-7-yl ethyl[(piperidin-2-yl)methyl]carbamate dihydrochloride]
pH5.0, 0 hr, 37° C.
  Production rate of Alvocidib: 0.0%
  Residual rate: 100.0%
  Stability in buffer solution at pH 5: stable
  Conversion to Alvocidib at pH 7.4: rapidly converted to Alvocidib
pH5.0, 0.5 hr, 37° C.
  Production rate of Alvocidib: 0.0%
  Residual rate: 100.0%
pH5.0, 1 hr, 37° C.
  Production rate of Alvocidib: 0.0%
  Residual rate: 100.0%
pH5.0, 2 hr, 37° C.
  Production rate of Alvocidib: 1.5%
  Residual rate: 98.5%
pH5.0, 3 hr, 37° C.
  Production rate of Alvocidib: 2.3%
  Residual rate: 97.7%
pH5.5, 0 hr, 37° C.
  Production rate of Alvocidib: 0.0%
  Residual rate: 100.0%
pH5.5, 0.5 hr, 37° C.
  Production rate of Alvocidib: 1.2%
  Residual rate: 98.8%
pH5.5, 1 hr, 37° C.
  Production rate of Alvocidib: 2.0%
  Residual rate: 98.0%
pH5.5, 2 hr, 37° C.
  Production rate of Alvocidib: 3.8%
  Residual rate: 96.2%
pH5.5, 3 hr, 37° C.
  Production rate of Alvocidib: 5.1%
  Residual rate: 94.9%
pH6.0, 0 hr, 37° C.
  Production rate of Alvocidib: 1.1%
  Residual rate: 98.9%
pH6.0, 0.5 hr, 37° C.
  Production rate of Alvocidib: 4.0%
  Residual rate: 96.0%
pH6.0, 1 hr, 37° C.
  Production rate of Alvocidib: 5.4%
  Residual rate: 94.6%
pH6.0, 2 hr, 37° C.
  Production rate of Alvocidib: 12.5%
  Residual rate: 87.5%
pH6.0, 3 hr, 37° C.
  Production rate of Alvocidib: 16.6%
  Residual rate: 83.4%
pH6.5, 0 hr, 37° C.
  Production rate of Alvocidib: 3.3%
  Residual rate: 96.7%
pH6.5, 0.5 hr, 37° C.
  Production rate of Alvocidib: 12.4%
  Residual rate: 87.6%
pH6.5, 1 hr, 37° C.
  Production rate of Alvocidib: 16.0%
  Residual rate: 84.0%
pH6.5, 2 hr, 37° C.
  Production rate of Alvocidib: 26.8%
  Residual rate: 73.2%
pH6.5, 3 hr, 37° C.
  Production rate of Alvocidib: 35.2%
  Residual rate: 64.8%
pH7.0, 0 hr, 37° C.
  Production rate of Alvocidib: 10.9%
  Residual rate: 89.1%
pH7.0, 0.5 hr, 37° C.
  Production rate of Alvocidib: 27.3%
  Residual rate: 72.7%
pH7.0, 1 hr, 37° C.
  Production rate of Alvocidib: 38.0%
  Residual rate: 62.0%
pH7.0, 2 hr, 37° C.
  Production rate of Alvocidib: 52.9%
  Residual rate: 47.1%
pH7.0, 3 hr, 37° C.
  Production rate of Alvocidib: 70.5%
  Residual rate: 29.5%
pH7.4, 0 hr, 37° C.
  Production rate of Alvocidib: 19.0%
  Residual rate: 81.0%
pH7.4, 0.5 hr, 37° C.
  Production rate of Alvocidib: 50.2%
  Residual rate: 49.8%
pH7.4, 1 hr, 37° C.
  Production rate of Alvocidib: 60.8%
  Residual rate: 39.2%
pH7.4, 2 hr, 37° C.
  Production rate of Alvocidib: 69.0%
  Residual rate: 31.0%
pH7.4, 3 hr, 37° C.
  Production rate of Alvocidib: 81.0%
  Residual rate: 19.0%

## CCCN(CC1CCCCN1)C(=O)Oc1cc(O)c2c(=O)cc(-c3ccccc3Cl)oc2c1[C@H]1CCN(C)C[C@H]1O (stereo partly drawn) [Example 9, 2-(2-chlorophenyl)-5-hydroxy-8-[(3S,4R)-3-hydroxy-1-methylpiperidin-4-yl]-4-oxo-4H-1-benzopyran-7-yl [(piperidin-2-yl)methyl]propylcarbamate]
Buffer solution, 37° C.
  Efficiency of conversion to Alvocidib: higher efficiency
pH5.0, 0 hr, 37° C.
  Production rate of Alvocidib: 1.4%
  Residual rate: 96.2%
  Stability in buffer solution at pH 5: stable
  Conversion to Alvocidib at pH 7.4: rapidly converted to Alvocidib
pH5.0, 0.5 hr, 37° C.
  Production rate of Alvocidib: 1.7%
  Residual rate: 95.9%
pH5.0, 1 hr, 37° C.
  Production rate of Alvocidib: 2.1%
  Residual rate: 95.6%
pH5.0, 2 hr, 37° C.
  Production rate of Alvocidib: 2.8%
  Residual rate: 94.9%
pH5.0, 3 hr, 37° C.
  Production rate of Alvocidib: 3.6%
  Residual rate: 94.0%
pH5.5, 0 hr, 37° C.
  Production rate of Alvocidib: 1.4%
  Residual rate: 96.2%
pH5.5, 0.5 hr, 37° C.
  Production rate of Alvocidib: 2.4%
  Residual rate: 95.2%
pH5.5, 1 hr, 37° C.
  Production rate of Alvocidib: 3.4%
  Residual rate: 94.4%
pH5.5, 2 hr, 37° C.
  Production rate of Alvocidib: 5.2%
  Residual rate: 92.5%
pH5.5, 3 hr, 37° C.
  Production rate of Alvocidib: 7.2%
  Residual rate: 90.5%
pH6.0, 0 hr, 37° C.
  Production rate of Alvocidib: 1.5%
  Residual rate: 96.2%
pH6.0, 0.5 hr, 37° C.
  Production rate of Alvocidib: 4.9%
  Residual rate: 92.9%
pH6.0, 1 hr, 37° C.
  Production rate of Alvocidib: 8.2%
  Residual rate: 89.5%
pH6.0, 2 hr, 37° C.
  Production rate of Alvocidib: 14.4%
  Residual rate: 83.0%
pH6.0, 3 hr, 37° C.
  Production rate of Alvocidib: 20.8%
  Residual rate: 76.6%
pH6.5, 0 hr, 37° C.
  Production rate of Alvocidib: 1.7%
  Residual rate: 95.9%
pH6.5, 0.5 hr, 37° C.
  Production rate of Alvocidib: 11.2%
  Residual rate: 86.4%
pH6.5, 1 hr, 37° C.
  Production rate of Alvocidib: 20.2%
  Residual rate: 77.3%
pH6.5, 2 hr, 37° C.
  Production rate of Alvocidib: 35.4%
  Residual rate: 61.9%
pH6.5, 3 hr, 37° C.
  Production rate of Alvocidib: 49.0%
  Residual rate: 48.4%
pH7.0, 0 hr, 37° C.
  Production rate of Alvocidib: 2.2%
  Residual rate: 95.4%
pH7.0, 0.5 hr, 37° C.
  Production rate of Alvocidib: 24.1%
  Residual rate: 73.1%
pH7.0, 1 hr, 37° C.
  Production rate of Alvocidib: 42.0%
  Residual rate: 55.1%
pH7.0, 2 hr, 37° C.
  Production rate of Alvocidib: 66.1%
  Residual rate: 31.0%
pH7.0, 3 hr, 37° C.
  Production rate of Alvocidib: 81.0%
  Residual rate: 16.7%
pH7.4, 0 hr, 37° C.
  Production rate of Alvocidib: 3.4%
  Residual rate: 94.3%
pH7.4, 0.5 hr, 37° C.
  Production rate of Alvocidib: 48.7%
  Residual rate: 48.7%
pH7.4, 1 hr, 37° C.
  Production rate of Alvocidib: 73.6%
  Residual rate: 23.7%
pH7.4, 2 hr, 37° C.
  Production rate of Alvocidib: 92.4%
  Residual rate: 5.6%
pH7.4, 3 hr, 37° C.
  Production rate of Alvocidib: 96.7%
  Residual rate: 1.1%
